Test results: patent US20090221559A1 (priority 2005, published 2009)
Like-named read-outs stand apart in the source and are kept apart here.

Tests used:
[1] = target: T1, HCV NS5B polymerase (His-tagged, C-terminal 21 amino acid deleted NS5B, HC-J4) (Hepatitis C virus genotype 1b, UniProt O92972); assay: NS5b polymerase assay (biochemical RdRp assay, 3H-GTP incorporation, SPA beads); set-up: species or system HCV genotype 1b
T1 construct: The cDNA encoding NS5B amino acid 1-570 (HC-J4, genotype 1b); His tag (His6, from pET-21b) (C); made in house; host or cells: E. coli BL21 (DE3)
T1 sequence (O92972 2417-3000, looked up, stated change not applied): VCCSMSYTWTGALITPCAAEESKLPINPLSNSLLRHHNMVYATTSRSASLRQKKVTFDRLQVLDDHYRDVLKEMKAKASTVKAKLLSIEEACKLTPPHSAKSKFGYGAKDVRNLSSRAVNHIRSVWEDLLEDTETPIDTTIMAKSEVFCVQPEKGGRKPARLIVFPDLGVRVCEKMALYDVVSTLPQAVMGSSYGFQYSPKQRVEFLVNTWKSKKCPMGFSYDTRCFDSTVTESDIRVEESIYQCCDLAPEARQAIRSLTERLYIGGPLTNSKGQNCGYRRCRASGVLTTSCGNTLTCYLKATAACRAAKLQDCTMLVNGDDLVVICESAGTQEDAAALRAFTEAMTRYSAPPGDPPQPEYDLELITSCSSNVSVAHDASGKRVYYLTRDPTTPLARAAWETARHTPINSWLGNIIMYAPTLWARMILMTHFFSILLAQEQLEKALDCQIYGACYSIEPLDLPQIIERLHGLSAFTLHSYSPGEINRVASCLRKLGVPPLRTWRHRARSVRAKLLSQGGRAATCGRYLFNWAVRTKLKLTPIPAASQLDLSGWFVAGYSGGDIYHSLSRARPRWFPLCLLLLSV
Outline: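 3H-GTP incorporation into newly made RNA was captured on SPA beads added in EDTA after 2 h at 25 °C. Compounds in DMSO met preformed enzyme–template complex (200 nM truncated His-NS5B, HC-J4 1b; biotin-oligo(rG13)/poly(rC)) for 15 min at RT, then 600 nM GTP, 5 mM MgCl2, Tris pH 7.5 started polymerization.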

[2] = system: HCV replicon RNA replication in Huh-7 luc/neo (Huh-Luc) cells; assay: HCV replicon assay (stable replicon cell reporter assay, luciferase read-out); assay type: cell-based, HCV type 1b
Outline: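 Three-day compound exposure used Huh-Luc cells, which harbour an autonomously replicating genotype 1b NS3-NS5B replicon expressing luciferase and neo^R. Luciferase signal served as the replication read-out, and dose-response curves came from several concentrations per compound.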

[3] = NS5B Polymerase Assay IC50, 200 nM enzyme, 3H-GTP incorporation, 2 h at 25° C.
[4] = Hepatitis C virus, Huh-7, 72 h, read-out: Replicon Assay EC50, Huh-Luc cells, three days incubation, luciferase activity
[5] = NS5B Polymerase Assay IC50 (μM)
[6] = Hepatitis C virus, Huh-7, 72 h, read-out: Replicon Assay EC50 (μM), Huh-Luc cells, incubation of three days, luciferase activity
[7] = 200 nM enzyme, 3H-GTP incorporation, 2 h at 25° C., read-out: NS5B Polymerase Assay IC50
[8] = Huh-Luc cells, three days incubation, luciferase activity, read-out: Replicon Assay EC50

| Structure (SMILES) | IC50 [1, 3] | EC50 [2, 4] | IC50 [1, 5] | EC50 [2, 6] | also measured |
| --- | --- | --- | --- | --- | --- |
| CCCCC(=O)N1c2ccccc2NC2=C(C(=O)CC(C)(C)C2)C1c1ccc(-c2cccc([N+](=O)[O-])c2)o1 (stereo not drawn) [compound 255] | > 42.7 µM | 21.8 µM | – | – | – |
| Cc1ccc(C2CC(=O)C3=C(C2)Nc2ccccc2NC3c2ccc(C)cc2)cc1 (stereo not drawn) [compound 408] | – | – | > 33.3 µM | 14.2 µM | – |
| COc1ccccc1C1C2=C(CC(C)(C)CC2=O)Nc2ccccc2N1C(=O)Cc1ccccc1 (stereo not drawn) [compound 81] | > 42.7 µM | 6.72 µM | – | – | – |
| COc1ccc(C2CC(=O)C3=C(C2)Nc2ccccc2N(C(=O)C(F)(F)F)C3c2ccc(Cl)cc2)cc1OC (stereo not drawn) [compound 226] | – | – | – | – | IC50 [1, 7]: > 33.3 µM; EC50 [2, 8]: 16.3 µM |
| CC1(C)CC(=O)C2=C(C1)Nc1ccccc1N(CC(=O)O)C2c1ccc(Cl)cc1Cl (stereo not drawn) [compound 511] | – | – | 1.9 µM | > 100 µM | – |
| CCC(=O)N1c2ccccc2NC2=C(C(=O)CC(C)(C)C2)C1c1ccc(OC)c(OC)c1 (stereo not drawn) [compound 84] | > 42.7 µM | 20.9 µM | – | – | – |
| CSc1ccc(C2Nc3ccccc3NC3=C2C(=O)CC(c2ccc4c(c2)OCO4)C3)cc1 (stereo not drawn) [compound 368] | – | – | > 42.7 µM | 14.9 µM | – |
| COc1ccc(C2CC(=O)C3=C(C2)Nc2ccccc2N(C(=O)c2ccccc2)C3c2ccc(C)cc2)cc1 (mixture of isomers) [compound 206] | – | – | – | – | IC50 [1, 7]: > 33.3 µM; EC50 [2, 8]: 10.9 µM |
| O=C1CC(c2ccccc2)CC2=C1C(c1ccccc1[N+](=O)[O-])Nc1ccccc1N2 (stereo not drawn) [compound 396] | – | – | > 42.7 µM | 11.3 µM | – |
| CCC(=O)N1c2ccccc2NC2=C(C(=O)CC(c3ccc(OC)cc3)C2)C1c1ccc(OC)cc1 (stereo not drawn) [compound 223] | > 42.7 µM | 25 µM | – | – | – |
| Cc1ccc(C2CC(=O)C3=C(C2)Nc2ccccc2N(C(=O)c2ccccc2)C3c2cccc(Cl)c2)cc1 (mixture of isomers) [compound 204] | – | – | – | – | IC50 [1, 7]: > 33.3 µM; EC50 [2, 8]: 9.96 µM |
| COc1c(Cl)cc(Cl)cc1C1C2=C(CC(C)(C)CC2=O)Nc2ccccc2N1C(=O)C(C)C (stereo not drawn) [compound 62] | > 42.7 µM | 22.6 µM | – | – | – |
| CC1(C)CC(=O)C2=C(C1)Nc1ccccc1NC2c1ccc([N+](=O)[O-])cc1 (stereo not drawn) [compound 448] | – | – | > 133 µM | > 100 µM | – |
| CC(=O)N1c2ccccc2NC2=C(C(=O)CC(C)(C)C2)C1c1ccc(Oc2ccccc2Br)cc1 (stereo not drawn) [compound 147, 10-acetyl-11-[4-(2-bromophenoxy)phenyl]-3,3-dimethyl-2,3,4,5,10,11-hexahydro-1H-dibenzo[b,e][1,4]diazepin-1-one] | 1.97 µM | 4.22 µM | – | – | – |
| COc1cccc(C2C3=C(CC(C)(C)CC3=O)Nc3ccccc3N2C(C)=O)c1 (stereo not drawn) [compound 105] | > 42.7 µM | > 32 µM | – | – | – |
| CCCCCC(=O)N1c2ccccc2NC2=C(C(=O)CC(c3ccc(Cl)cc3)C2)C1c1ccc(OC)cc1 (mixture of isomers) [compound 215] | – | – | – | – | IC50 [1, 7]: > 33.3 µM; EC50 [2, 8]: 14.1 µM |
| O=C1C[C@@H](c2ccc(Cl)cc2)CC2=C1[C@H](c1cccnc1)Nc1ccccc1N2 [compound 483] | – | – | > 42.7 µM | 15.5 µM | – |
| Cc1ccc(C2CC(=O)C3=C(C2)Nc2ccccc2N(C(=O)c2ccccc2)C3c2ccccc2)cc1 (mixture of isomers) [compound 209] | – | – | – | – | IC50 [1, 7]: > 33.3 µM; EC50 [2, 8]: 11.8 µM |
| CC(=O)N1c2ccccc2NC2=C(C(=O)CC(C)(C)C2)C1c1cc(Cl)cc(Cl)c1 (stereo not drawn) [compound 133, 10-acetyl-11-[3,5-dichlorophenyl]-3,3-dimethyl-2,3,4,5,10,11-hexahydro-1H-dibenzo[b,e][1,4]diazepin-1-one] | > 133 µM | 11 µM | – | – | – |
| CCOc1ccc(C2C3=C(CC(C)(C)CC3=O)Nc3ccccc3N2C(C)=O)cc1 (stereo not drawn) [compound 57] | > 42.7 µM | 4.47 µM | – | – | – |
| CCCOc1cccc(C2C3=C(CC(C)(C)CC3=O)Nc3ccccc3N2C(C)=O)c1 (stereo not drawn) [compound 123] | > 42.7 µM | > 32 µM | – | – | – |
| COc1ccc(C2CC(=O)C3=C(C2)Nc2ccccc2NC3c2cccc(Oc3ccccc3)c2)cc1 (stereo not drawn) [compound 331] | – | – | > 42.7 µM | 7.44 µM | – |
| CC1(C)CC(=O)C2=C(C1)Nc1ccccc1NC2c1ccccc1C(=O)O (stereo not drawn) [compound 432] | – | – | > 42.7 µM | 17.7 µM | – |
| CC1(C)CC(=O)C2=C(C1)Nc1ccccc1N(C(=O)c1ccc(Br)cc1)C2c1ccco1 (stereo not drawn) [compound 254] | > 42.6 µM | 15.3 µM | – | – | – |

| Structure (SMILES) | IC50 [1, 3] | EC50 [2, 4] | IC50 [1, 5] | EC50 [2, 6] | also measured |
| --- | --- | --- | --- | --- | --- |
| CC(=O)N1c2ccccc2NC2=C(C(=O)CC(C)C2)C1c1ccc(Cl)cc1Cl (stereo not drawn) [compound 294, 10-acetyl-11-(2,4-dichlorophenyl)-3-methyl-2,3,4,5,10,11-hexahydro-1H-dibenzo[b,e][1,4]diazepin-1-one] | 10.4 µM | 42 µM | – | – | – |
| CN1c2ccccc2NC2=C(C(=O)CC(C)(C)C2)C1c1ccc(Cl)cc1Cl (stereo not drawn) [compound 507, 11-(2,4-Dichlorophenyl)-2,3,4,5,10,11-hexahydro-3,3,10-trimethyl-1H-dibenzo[b,e][1,4]diazepin-1-one] | – | – | > 42.7 µM | 4.63 µM | – |
| COc1ccc(C2CC(=O)C3=C(C2)Nc2ccccc2NC3c2cccc(OC)c2OC)cc1OC (stereo not drawn) [compound 401] | – | – | > 42.7 µM | 2.88 µM | – |
| CC(=O)N1c2ccccc2NC2=C(C(=O)CC(C)(C)C2)C1c1ccc(Cl)cc1 (stereo not drawn) [compound 111] | > 42.7 µM | > 32 µM | – | – | – |
| CCC(=O)N1c2ccccc2NC2=C(C(=O)CC(c3ccc(C)cc3)C2)C1c1cccc(Cl)c1 (mixture of isomers) [compound 195] | – | – | – | – | IC50 [1, 7]: > 33.3 µM; EC50 [2, 8]: 6.9 µM |
| CC1(C)CC(=O)C2=C(C1)Nc1ccccc1N(C(=O)Cc1ccccc1)C2c1cccc(Cl)c1 (stereo not drawn) [compound 31] | > 42.7 µM | 6.36 µM | – | – | – |
| CCCCCC(=O)N1c2ccccc2NC2=C(C(=O)CC(c3ccc(OC)cc3)C2)C1c1ccc(Cl)cc1 (stereo not drawn) [compound 232] | – | – | – | – | IC50 [1, 7]: > 33.3 µM; EC50 [2, 8]: 22.6 µM |
| CC(=O)N1c2ccccc2NC2=C(C(=O)CC(C)(C)C2)C1c1ccc(OCc2ccccn2)cc1 (stereo not drawn) [compound 141, 10-acetyl-3,3-dimethyl-11-[4-(2-pyridylmethoxy)phenyl]-2,3,4,5,10,11-hexahydro-1H-dibenzo[b,e][1,4]diazepin-1-one] | 7.91 µM | 16.3 µM | – | – | – |
| CCCCC(=O)N1c2ccccc2NC2=C(C(=O)CC(C)(C)C2)C1c1ccc(OC)c(OC)c1 (stereo not drawn) [compound 80] | > 33.3 µM | 9.53 µM | – | – | – |
| CC1(C)CC(=O)C2=C(C1)Nc1ccccc1N(C(=O)Cc1ccccc1)C2c1ccc2c(c1)OCO2 (stereo not drawn) [compound 275] | > 42.7 µM | 10.1 µM | – | – | – |
| CC(=O)N1c2ccccc2NC2=C(C(=O)CC(C)(C)C2)C1c1ccc(OCc2ccncc2)cc1 (stereo not drawn) [compound 145, 10-acetyl-3,3-dimethyl-11-[4-(4-pyridylmethoxy)phenyl]-2,3,4,5,10,11-hexahydro-1H-dibenzo[b,e][1,4]diazepin-1-one] | 23.1 µM | 5.92 µM | – | – | – |
| O=C1CC(c2ccc(Cl)cc2)CC2=C1C(c1ccc(Cl)c(Cl)c1)Nc1ccccc1N2 (stereo not drawn) [compound 355] | – | – | > 42.7 µM | 5.48 µM | – |
| Cc1ccc(C2Nc3ccccc3NC3=C2C(=O)CC(c2ccccc2Cl)C3)cc1 (stereo not drawn) [compound 395] | – | – | > 42.7 µM | 9.91 µM | – |
| CC1CC(=O)C2=C(C1)Nc1ccccc1NC2c1ccc(Cl)cc1Cl (stereo not drawn) [compound 422, 11-(2,4-dichlorophenyl)-3-methyl-2,3,4,5,10,11-hexahydro-1H-dibenzo[b,e][1,4]diazepin-1-one] | – | – | > 133 µM | > 100 µM | – |
| COc1cc2c(cc1OC)N(C(C)=O)C(c1ccc(Cl)cc1Cl)C1=C(CC(C)(C)CC1=O)N2 (stereo not drawn) [compound 309, 10-acetyl-7,8-dimethoxy-11-(2,4-dichlorophenyl)-3,3-dimethyl-2,3,4,5,10,11-hexahydro-1H-dibenzo[b,e][1,4]diazepin-1-one] | > 133 µM | 39.6 µM | – | – | – |
| CCOc1cc(C2C3=C(CC(C)(C)CC3=O)Nc3ccccc3N2C(C)=O)ccc1O (stereo not drawn) [compound 121] | > 42.7 µM | > 32 µM | – | – | – |
| COc1ccc(C2CC(=O)C3=C(C2)Nc2ccccc2NC3c2ccccc2C(F)(F)F)cc1 (stereo not drawn) [compound 324] | – | – | > 42.6 µM | 18.5 µM | – |
| CCOc1cc(C2Nc3ccccc3NC3=C2C(=O)CC(c2ccc(OC)cc2)C3)ccc1OC(C)=O (stereo not drawn) [compound 386] | – | – | > 42.7 µM | > 29.6 µM | – |
| CC1(C)CC(=O)C2=C(C1)Nc1ccccc1N(C(=O)C(F)(F)F)C2c1ccc(OCc2ccccc2)cc1 (stereo not drawn) [compound 52] | > 42.7 µM | 7.44 µM | – | – | – |
| CCN(CC)c1ccc(C2CC(=O)C3=C(C2)Nc2ccccc2NC3c2ccccc2)cc1 (stereo not drawn) [compound 376] | – | – | > 42.7 µM | 9.45 µM | – |
| O=C1C[C@@H](c2ccccc2)CC2=C1[C@H](c1cc3c(cc1Br)OCO3)Nc1ccccc1N2 [compound 481] | – | – | > 42.7 µM | 1.61 µM | – |
| CC(=O)N1c2ccccc2NC2=C(C(=O)CC(C)(C)C2)C1c1cc2c(cc1Br)OCO2 (stereo not drawn) [compound 277] | > 42.7 µM | 13.6 µM | – | – | – |
| CCCCCC(=O)N1c2ccccc2NC2=C(C(=O)CC(c3cccc([N+](=O)[O-])c3)C2)C1c1ccc(OC)c(OC)c1 (stereo not drawn) [compound 174] | – | – | – | – | IC50 [1, 7]: > 42.7 µM; EC50 [2, 8]: 1.85 µM |
| CCOc1ccccc1C1Nc2ccccc2NC2=C1C(=O)CC(c1ccccc1)C2 (stereo not drawn) [compound 393] | – | – | > 33.3 µM | 6.84 µM | – |
